Results from US8951982B2, “Methods and compositions for the treatment of eye disorders with increased intraocular pressure” (Sylentis S.A.U., priority 2004, dated 2015).
d = 2'-deoxy (DNA)

Experiments:
PTGS1 = assay: siRNA transfection of cells, real time PCR of target gene expression; type: cell-based; details: 100 nM siRNA, mean ± SD
Procedure: (§1) Cells (either NPE, OMDC, or HEK293 cells) were incubated with various siRNA molecules and assayed for expression of the native mRNA corresponding to the siRNA molecule. One day prior to transfection, 2−4×10^5 cells were seeded into each well of a 6 well plate in 3 ml of growth medium (DMEM, 10% serum, antibiotics and glutamine) and incubated under normal growth conditions (37° C. and 5% CO2). Lipofectamine 2000 Reagent (Invitrogen Corporation, Carlsbad, Calif.) was used to transfect the cells with the siRNA molecules. The protocol supplied by the manufacturer was followed. Briefly, siRNA molecules were added to cells that were 30%-50% confluent to a final concentration of 100 nM. Prior to addition to the cells, the siRNA molecule was diluted in 250 μl DMEM and incubated at room temperature for 5 minutes. The siRNA was then mixed with 6 μl of Lipofectamine 2000 Reagent that also had been diluted in 250 μl DMEM and the mixture was incubated at room temperature for 20 minutes. The siRNA/Lipofectamine mixture was added to the cells drop-wise with 2 ml of fresh growth medium low in antibiotics. After swirling the plates to ensure uniform distribution of the transfection complexes, the cells were incubated under normal growth conditions for 24 hours. After incubation with either of the transfection complexes, the medium was removed and replaced with 3 ml of fresh complete growth medium. mRNA was collected from cells at 24, 48 and 72 hours post-transfection.
(§2) After transfection and incubation with a siRNA molecule, total RNA fractions were extracted from cells using protocols well known in the art. The effect of siRNAs on target gene expression was analyzed by real time PCR and semi-quantitative PCR according to standard protocols. Approximately 250 ng of total RNA was used for reverse transcription followed by PCR amplification with specific primers for the target gene in a reaction mixture containing SYBR Green I Dye (Applied Biosystems, Foster City, Calif.). Basic PCR conditions comprised an initial step of […], followed by 40 cycles of 5 s at 95° C., 10 s at 62° C. and 15 s at 72° C. Quantification of beta-actin mRNA was used as a control for data normalization.
(§3) The values represent the mean of the percentage of siRNA interference of each gene expression once normalized with the control cells and their standard deviations.

CA2 = assay: as above; type: cell-based; details: 100 nM siRNA, mean ± SD, normalized to beta-actin
Procedure: as §1, §2, §3

[1] = test system: Normotensive New Zealand White rabbits; assay: In vivo rabbit model of IOP (contact tonometer); details: figure legends (FIGS. 5-8), 256 μg dose of siRNA per administration
Procedure: Normotensive New Zealand White rabbits (males, 2-3 kg) were used in the in vivo assays. The animals were kept in individual cages with free access to food and water. Animals were submitted to artificial 12 hours light/darkness cycles to avoid uncontrolled circadian oscillations of IOP and all experiments were performed at the same time of day to control for any fluctuations in IOP due to circadian oscillations. Animal handling and treatment were carried out in accordance with the European Communities Council Directive (86/609/EEC) and the statement of the Association for Research in Vision and Ophthalmology on the Use of Animals in Ophthalmic and Vision Research. Each animal was used for only one experiment.
IOP measurements were done using a contact tonometer (TonoPen XL, Mentor, Norwell, Mass.) due to past success of measuring intraocular pressures within the range of 3 to 30 mm Hg in rabbits (Abrams et al., 1996, Invest Ophthalmol Vis Sci. 37:940-4). Measurements were performed by delicately applying the tonometer's sensor to the corneal surface of the animal. All measurements fell within the 3 to 30 mm Hg interval with the mean baseline value of intraocular pressure being 17.0±0.39 mm Hg for untreated animals (n=100). In order to avoid distress to the animal, rabbits were topically anesthetized (10 μl of oxibuprocaine/tetracaine, 0.4%/1%, in a saline solution (1/4 v:v)) prior to IOP measurement.
Commercially available drugs were typically administered to the animals by instilling a small volume (typically 40 μl) on the corneal surface. Contralateral eyes were treated with the vehicle alone and were used as controls in each experiment.
siRNA molecules or commercially available drugs were typically administered to the animals as follows. Doses of siRNA in saline solution (0.9% w/v) to a final volume of 40 μl were applied to the corneal surface of one eye each day during four consecutive days. The opposite eye was taken as a control and 40 μl of sterile saline (0.9% w/v) was instilled on it at the same time points. Commercially available drugs were typically administered to the animals by instilling a small volume (typically 40 μl) on the corneal surface. Contralateral eyes were treated with the vehicle alone and were used as controls in each experiment. The IOP was measured before each application and at 2 h, 4 h and 6 h following the instillation for 10 days.
The data are summarized in Table 2 where values represent the mean of the normalized maximum percentage of IOP reduction after siRNA treatment and their standard deviations. The decrease in IOP was statistically significant for all the treated targets.

| Substance | % of gene transcript level in control cells (PTGS1; 24 h post-transfection) | % of gene transcript level in control cells (PTGS1; 48 h post-transfection) | % of gene transcript level in control cells (CA2; 24 h post-transfection) | % of gene transcript level in control cells (CA2; 48 h post-transfection) | decrease of IOP over a saline control [1] |
| --- | --- | --- | --- | --- | --- |
| SEQ ID NO: 369: siRNA targeting PTGS1 (CAUUGUCAAGACGGCCACA; 3' dTdT, sugars by position and backbone not given here; listed as Homo sapiens) | 34.98 ± 14.33% | 26.30 ± 10.91% |  |  |  |
| SEQ ID NO: 353: siRNA targeting PTGS1 (prostaglandin endoperoxide synthase 1) (CCAUCUCUACCACUGGCAC; 3' dTdT, sugars by position and backbone not given here; listed as Homo sapiens) | 42.25 ± 13.76% | 42.68 ± 17.00% |  |  |  |
| SEQ ID NO: 54: siRNA targeting CA2 (CUUCCCUGAGGAUCCUCAA; 3' dTdT, sugars by position and backbone not given here; listed as Homo sapiens) |  |  | 37.97 ± 9.78% | 61.45 ± 9.62% |  |
| SEQ ID NO: 73: siRNA targeting human carbonic anhydrase II (CA2), 2 thymidine 3' overhang (GGUUGGCAGCGCUAAACCG; 3' dTdT, sugars by position and backbone not given here; listed as Homo sapiens) |  |  | 76.25 ± 12.60% | 84.57 ± 14.70% | 25% |
| SEQ ID NO: 66: siRNA targeting CA2 (CUUCACUUGGUUCACUGGA; 3' dTdT, sugars by position and backbone not given here; listed as Homo sapiens) |  |  | 35.30 ± 9.73% | 51.14 ± 16.49% |  |
